Assay results published in patent US20250127801A1, “BRIDGED TRICYCLIC CARBAMOYLPYRIDONE COMPOUNDS AND USES THEREOF” (priority 2023, published 2025).
≈ marks a conversion by molar mass, not a printed value. Read-outs that look alike come from different tables or passages of the source.

What was measured:
[1] = test system: HIV-1 (IIIB); experiment: microbe, parasite or virus in culture; format: cell-based
[2] = in vitro; conditions: human; for CC50 at 5 days: uninfected MT-4 cells
[3] = physchem; conditions: 23 °C, thermodynamic from solid; for solubility thermodynamic: fassif; for solubility thermodynamic at 24 h: FaSSIF
[4] = Human immunodeficiency virus 1, IIIB, MT4, 120 h, read-out: MT4 EC50 (nM)
[5] = Human immunodeficiency virus 1, MT4, 120 h, HIV-1 (IIIB) replication in MT-4 cells, 5 days incubation, Cell Titer Glo, read-out: MT4 EC50

SMILES	EC50 [1, 4] [nM]	CC50 [2] [µM]	solubility thermodynamic [3] [mg/mL]	EC50 [1, 5] [nM]	CC50 at 5 days [2] [µM]	solubility thermodynamic at 24 h [3] [mg/mL]
CC1=NO[C@@]2(CC[C@H](C)N3C[C@H]2n2cc(C(=O)NCc4ccc(F)cc4F)c(=O)c(OC(=O)CC(C)(C)c4c(C)cc(C)cc4OP(=O)(O)O)c2C3=O)C1 [Compound 26, (3′S,5S,7′R)-10′-((2,4-difluorobenzyl)carbamoyl)-3,3′-dimethyl-1′,11′-dioxo-1′,4′,5′,11′-tetrahydro-3′H,4H,7′H-spiro[isoxazole-5,6′-[2,7]methanopyrido[1,2-a][1,4]diazonin]-12′-yl 3-(2,4-dimethyl-6-(phosphonooxy)phenyl)-3-methylbutanoate]	1.13	12.2	4.29 (≈ 5.57 mM)	–	–	–
CCCCCCCCCCCCCC(=O)Nc1ccc(CC(=O)Oc2c3n(cc(C(=O)NCc4ccc(F)cc4F)c2=O)[C@@H]2CN(C3=O)[C@@H](C)CC[C@]23CC(OC)=NO3)cc1 [Compound 93, (3′S,5S,7′R)-10′-((2,4-difluorobenzyl)carbamoyl)-3-methoxy-3′-methyl-1′,11′-dioxo-1′,4′,5′,11′-tetrahydro-3′H,4H,7′H-spiro[isoxazole-5,6′-[2,7]methanopyrido[1,2-a][1,4]diazonin]-12′-yl 2-(4-tetradecanamidophenyl)acetate]	–	–	–	1.36	≥ 50	0.006 (≈ 0.00709 mM)
CC1=NO[C@@]2(CC[C@H](C)N3C[C@H]2n2cc(C(=O)NCc4ccc(F)cc4F)c(=O)c(OCOC(=O)CC(C)(C)c4c(CC(=O)O)cc(C)cc4OP(=O)(O)O)c2C3=O)C1 [Compound 20, 2-(2-(4-((((3′S,5S,7′R)-10′-((2,4-difluorobenzyl)carbamoyl)-3,3′-dimethyl-1′,11′-dioxo-1′,4′,5′,11′-tetrahydro-3′H,4H,7′H-spiro[isoxazole-5,6′-[2,7]methanopyrido[1,2-a][1,4]diazonin]-12′-yl)oxy)methoxy)-2-methyl-4-oxobutan-2-yl)-5-methyl-3-(phosphonooxy)phenyl)acetic acid]	1.76	12.5	4.41 (≈ 5.22 mM)	–	–	–
CC1=NO[C@@]2(CC[C@H](C)N3C[C@H]2n2cc(C(=O)NCc4ccc(F)cc4F)c(=O)c(OCOC(=O)O[C@H]4CCCC[C@@H]4OP(=O)(O)O)c2C3=O)C1 [Compound 44, (((3′S,5S,7′R)-10′-((2,4-difluorobenzyl)carbamoyl)-3,3′-dimethyl-1′,11′-dioxo-1′,4′,5′,11′-tetrahydro-3′H,4H,7′H-spiro[isoxazole-5,6′-[2,7]methanopyrido[1,2-a][1,4]diazonin]-12′-yl)oxy)methyl ((1S,2S)-2-(phosphonooxy)cyclohexyl) carbonate]	–	–	–	1.8	13.5	4.44 (≈ 6.01 mM)
CC1=NO[C@@]2(CC[C@H](C)N3C[C@H]2n2cc(C(=O)NCc4ccc(F)cc4F)c(=O)c(OCOC(=O)CC(C)(C)c4c(CC(=O)N5CCC[C@@H]5C(=O)O)cc(C)cc4OP(=O)(O)O)c2C3=O)C1 [Compound 57, (2-(2-(4-((((3′S,5S,7′R)-10′-((2,4-difluorobenzyl)carbamoyl)-3,3′-dimethyl-1′,11′-dioxo-1′,4′,5′,11′-tetrahydro-3′H,4H,7′H-spiro[isoxazole-5,6′-[2,7]methanopyrido[1,2-a][1,4]diazonin]-12′-yl)oxy)methoxy)-2-methyl-4-oxobutan-2-yl)-5-methyl-3-(phosphonooxy)phenyl)acetyl)-D-proline]	2.55	15	5.46 (≈ 5.79 mM)	–	–	–
CC1=NO[C@@]2(CC[C@H](C)N3C[C@H]2n2cc(C(=O)NCc4ccc(F)cc4F)c(=O)c(OCOC(=O)OCc4ccc(OP(=O)(O)O)cc4)c2C3=O)C1 [Compound 19, (((3′S,5S,7′R)-10′-((2,4-difluorobenzyl)carbamoyl)-3,3′-dimethyl-1′,11′-dioxo-1′,4′,5′,11′-tetrahydro-3′H,4H,7′H-spiro[isoxazole-5,6′-[2,7]methanopyrido[1,2-a][1,4]diazonin]-12′-yl)oxy)methyl (4-(phosphonooxy)benzyl) carbonate]	0.71	10.9	0.39 (≈ 0.522 mM)	–	–	–
CC1=NO[C@@]2(CC[C@H](C)N3C[C@H]2n2cc(C(=O)NCc4ccc(F)cc4F)c(=O)c(OCOC(=O)OCC4(COP(=O)(O)O)COC(=O)N4C)c2C3=O)C1 (stereo partly drawn) [Compound 55, (((3′S,5S,7′R)-10′-((2,4-difluorobenzyl)carbamoyl)-3,3′-dimethyl-1′,11′-dioxo-1′,4′,5′,11′-tetrahydro-3′H,4H,7′H-spiro[isoxazole-5,6′-[2,7]methanopyrido[1,2-a][1,4]diazonin]-12′-yl)oxy)methyl ((3-methyl-2-oxo-4-((phosphonooxy)methyl)oxazolidin-4-yl)methyl) carbonate]	–	–	–	2.5	12.9	5.53 (≈ 7.05 mM)
CC1=NO[C@@]2(CC[C@H](C)N3C[C@H]2n2cc(C(=O)NCc4ccc(F)cc4F)c(=O)c(OC(=O)N(C)c4ncccc4CN(CC(=O)OC(C)(C)C)C(=O)OCOP(=O)(O)O)c2C3=O)C1 [Compound 5, tert-butyl N-((2-(((((3′S,5S,7′R)-10′-((2,4-difluorobenzyl)carbamoyl)-3,3′-dimethyl-1′,11′-dioxo-1′,4′,5′,11′-tetrahydro-3′H,4H,7′H-spiro[isoxazole-5,6′-[2,7]methanopyrido[1,2-a][1,4]diazonin]-12′-yl)oxy)carbonyl)(methyl)amino)pyridin-3-yl)methyl)-N-(((phosphonooxy)methoxy)carbonyl)glycinate]	1.24	10.3	4.01 (≈ 4.37 mM)	–	–	–
CC1=NO[C@@]2(CC[C@H](C)N3C[C@H]2n2cc(C(=O)NCc4ccc(F)cc4F)c(=O)c(OCOC(=O)CC(C)(C)c4c(C)cc(C)cc4OP(=O)(O)O)c2C3=O)C1 [Compound 27]	2.75	16.9	2.26 (≈ 2.82 mM)	–	–	–
CC1=NO[C@@]2(CC[C@H](C)N3C[C@H]2n2cc(C(=O)NCc4ccc(F)cc4F)c(=O)c(OCOC(=O)O[C@H]4CCCC[C@H]4OP(=O)(O)O)c2C3=O)C1 [Compound 51, (((3′S,5S,7′R)-10′-((2,4-difluorobenzyl)carbamoyl)-3,3′-dimethyl-1′,11′-dioxo-1′,4′,5′,11′-tetrahydro-3′H,4H,7′H-spiro[isoxazole-5,6′-[2,7]methanopyrido[1,2-a][1,4]diazonin]-12′-yl)oxy)methyl ((1S,2R)-2-(phosphonooxy)cyclohexyl) carbonate]	–	–	–	2	21.2	4.4 (≈ 5.95 mM)
CC1=NO[C@@]2(CC[C@H](C)N3C[C@H]2n2cc(C(=O)NCc4ccc(F)cc4F)c(=O)c(OCOC(=O)N(C)c4ncccc4CN(C)C(=O)OCOP(=O)(O)O)c2C3=O)C1 [Compound 62, (phosphonooxy)methyl ((2-((((((3′S,5S,7′R)-10′-((2,4-difluorobenzyl)carbamoyl)-3,3′-dimethyl-1′,11′-dioxo-1′,4′,5′,11′-tetrahydro-3′H,4H,7′H-spiro[isoxazole-5,6′-[2,7]methanopyrido[1,2-a][1,4]diazonin]-12′-yl)oxy)methoxy)carbonyl)(methyl)amino)pyridin-3-yl)methyl)(methyl)carbamate]	1.73	14.6	5.03 (≈ 5.93 mM)	–	–	–
CC1=NO[C@@]2(CC[C@H](C)N3C[C@H]2n2cc(C(=O)NCc4ccc(F)cc4F)c(=O)c(OC(=O)N(C)c4ncc(C(=O)N[C@@H](CC(=O)O)C(=O)O)cc4COP(=O)(O)O)c2C3=O)C1 [Compound 84, (6-(((((3′S,5S,7′R)-10′-((2,4-difluorobenzyl)carbamoyl)-3,3′-dimethyl-1′,11′-dioxo-1′,4′,5′,11′-tetrahydro-3′H,4H,7′H-spiro[isoxazole-5,6′-[2,7]methanopyrido[1,2-a][1,4]diazonin]-12′-yl)oxy)carbonyl)(methyl)amino)-5-((phosphonooxy)methyl)nicotinoyl)-L-aspartic acid]	38	≥ 50	5.58 (≈ 6.27 mM)	–	–	–
COC1=NO[C@@]2(CC[C@H](C)N3C[C@H]2n2cc(C(=O)NCc4ccc(F)cc4F)c(=O)c(OCOC(=O)N(C)C[C@@H]4CCCN4)c2C3=O)C1 [Compound 15, (((3′S,5S,7′R)-10′-((2,4-difluorobenzyl)carbamoyl)-3-methoxy-3′-methyl-1′,11′-dioxo-1′,4′,5′,11′-tetrahydro-3′H,4H,7′H-spiro[isoxazole-5,6′-[2,7]methanopyrido[1,2-a][1,4]diazonin]-12′-yl)oxy)methyl methyl(((S)-pyrrolidin-2-yl)methyl)carbamate]	–	–	–	1.61	14.7	1.48 (≈ 2.19 mM)
CC1=NO[C@@]2(CC[C@H](C)N3C[C@H]2n2cc(C(=O)NCc4ccc(F)cc4F)c(=O)c(OCOC(=O)N4CCC[C@H]4COP(=O)(O)O)c2C3=O)C1 [Compound 66, (((3′S,5S,7′R)-10′-((2,4-difluorobenzyl)carbamoyl)-3,3′-dimethyl-1′,11′-dioxo-1′,4′,5′,11′-tetrahydro-3′H,4H,7′H-spiro[isoxazole-5,6′-[2,7]methanopyrido[1,2-a][1,4]diazonin]-12′-yl)oxy)methyl (2S)-2-((phosphonooxy)methyl)pyrrolidine-1-carboxylate]	–	–	–	63.8	≥ 50	4.83 (≈ 6.67 mM)
CC1=NO[C@@]2(CC[C@H](C)N3C[C@H]2n2cc(C(=O)NCc4ccc(F)cc4F)c(=O)c(OCOC(=O)[C@@H]4CC[C@@H]4CN(CC(=O)O)C(=O)OCOP(=O)(O)O)c2C3=O)C1 [Compound 80, N-(((1S,2R)-2-(((((3′S,5S,7′R)-10′-((2,4-difluorobenzyl)carbamoyl)-3,3′-dimethyl-1′,11′-dioxo-1′,4′,5′,11′-tetrahydro-3′H,4H,7′H-spiro[isoxazole-5,6′-[2,7]methanopyrido[1,2-a][1,4]diazonin]-12′-yl)oxy)methoxy)carbonyl)cyclobutyl)methyl)-N-(((phosphonooxy)methoxy)carbonyl)glycine]	0.785	10.1	4.15 (≈ 4.94 mM)	–	–	–
